Entries after “also recorded” stand apart in the source; their conditions may differ. Where a name gives a salt, the structure may show the parent alone.
Assays:
[1] = logP determination by titration in octanol/water; conditions: octanol/water
[2] = test drug given together with patiromer, healthy volunteers; a drug listed in the table cell = AUC reduced; cited from earlier work
[3] = pKa determination by titration in aqueous solution (UV or pH monitored); conditions: aqueous solution, pKa (B = base), basic group; average of three determinations
[4] = In vitro binding assay: free test drug recovered after 3 h incubation with and without patiromer in SGF, acetate buffer or SIF; conditions: for SGF / SIF / AB: QSPR input data; for SGF: test matrix SGF; for SIF: test matrix SIF; for AB: test matrix acetate buffer (AB); for In Vitro Binding (% Drug Recovered) Acetate Buffer (pH 4.5) / In Vitro Binding (% Drug Recovered) SGF (pH 3) / In Vitro Binding (% Drug Recovered) SIF (pH 5.9): patiromer 25.2 g/L, 3 h, 37°C, geometric mean of 12 replicates; for In Vitro Binding (% Drug Recovered) SGF (pH 3): simulated gastric fluid, final pH 3.0; for In Vitro Binding (% Drug Recovered) SIF (pH 5.9): simulated intestinal fluid, final pH 5.9; for In vitro patiromer binding category: strong, weak or non-binding
[5] = logD determination (liquid-liquid distribution chromatography, octanol-coated column); conditions: octanol-coated column with octanol-saturated mobile phase
[6] = Dose-response in vitro patiromer binding across a range of test drug concentrations; conditions: across a clinically relevant dose range

logP [1] | pKa [3] | chromatographic logD ([5]; pH 3) | chromatographic logD ([5]; pH 4.5) | chromatographic logD ([5]; pH 5.9) | SGF [4] | SIF [4] | In Vitro Binding (% Drug Recovered) SGF (pH 3) [4] [%] | In Vitro Binding (% Drug Recovered) SIF (pH 5.9) [4] [%] | In vitro patiromer binding category [4] | SMILES | AUC reduced when co-administration (lower bound of the 90% CI <80%) [2] | Behaviour of drug in the presence of patiromer and its calcium counter-ion ([4]; in vitro binding assay conditions) | AB [4] | In Vitro Binding (% Drug Recovered) Acetate Buffer (pH 4.5) [4] [%] | Binding categories (level of in vitro interaction with patiromer) ([4]; across SGF, AB and SIF test matrices) | Concentration dependence of in vitro binding to patiromer [6]
3.44 | 8.73 | 3.44 | 3.44 | 3.37 | – | – | – | – | – | N[C@@H](Cc1cc(I)c(Oc2cc(I)c(O)c(I)c2)c(I)c1)C(=O)O [Levothyroxine sodium] | Ciprofloxacin, 500 mg Levothyroxine, 0.6 mg | precipitated in the presence of patiromer and its calcium counter-ion | – | – | – | –
– | – | – | – | – | 12.6 | 24.3 | 12.6 | 24.3 | strong binders | C=C[C@H]1C[N@@]2CC[C@H]1C[C@@H]2[C@@H](O)c1ccnc2ccc(OC)cc12 [Quinidine] | – | – | – | – | – | did not show strong concentration dependence
– | – | – | – | – | 36.3 | 28.4 | 36.3 | 28.4 | strong binders | COc1cc(Cc2cnc(N)nc2N)cc(OC)c1OC [Trimethoprim] | – | – | 55.3 | 55.3 | – | did not show strong concentration dependence

SMILES | logP [1] | pKa [3] | chromatographic logD ([5]; pH 3) | chromatographic logD ([5]; pH 4.5) | chromatographic logD ([5]; pH 5.9) | SGF [4] | SIF [4] | In Vitro Binding (% Drug Recovered) SGF (pH 3) [4] [%] | In Vitro Binding (% Drug Recovered) SIF (pH 5.9) [4] [%] | In vitro patiromer binding category [4] | AUC reduced when co-administration (lower bound of the 90% CI <80%) [2] | Behaviour of drug in the presence of patiromer and its calcium counter-ion ([4]; in vitro binding assay conditions) | AB [4] | In Vitro Binding (% Drug Recovered) Acetate Buffer (pH 4.5) [4] [%] | Binding categories (level of in vitro interaction with patiromer) ([4]; across SGF, AB and SIF test matrices) | Concentration dependence of in vitro binding to patiromer [6]
CN(C)C(=N)N=C(N)N [Metformin HCl] | – | – | – | – | – | 48.9 | 80.2 | 48.9 | 80.2 | weak binder | moderate reduction in AUC; also recorded: Metformin, 1000 mg | – | 81.8 | 81.8 | Weak binder (30–55% bound in one test matrix) | –

— publication PMC5843698, “Use of QSPR Modeling to Characterize In Vitro Binding of Drugs to a Gut-Restricted Polymer” (Pharmaceutical Research, 2018)
